Assay results taken from PubChem BioAssay (NCI).
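Following 48 hours of exposure in 96-well plates, responses at five concentrations were used to interpolate endpoints linearly. The concentration for 50% growth inhibition is given as GI50. TGI is the concentration that stops growth completely.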

Tests used:
Assay in all cases: growth of human tumour cells (NCI), 48 h
HCT-15 colon = tested on: HCT-15 colon
SN12C renal = tested on: SN12C renal
NCI/ADR-RES ovarian = tested on: NCI/ADR-RES ovarian
NCI-H23 lung = tested on: NCI-H23 lung
NCI-H226 lung = tested on: NCI-H226 lung
TK-10 renal = tested on: TK-10 renal
UACC-62 melanoma = tested on: UACC-62 melanoma
HS 578T breast = tested on: HS 578T breast
OVCAR-3 ovarian = tested on: OVCAR-3 ovarian
HOP-62 NSCLC = tested on: HOP-62 NSCLC
CAKI-1 renal = tested on: CAKI-1 renal
HL-60(TB) leukemia = tested on: HL-60(TB) leukemia
PC-3 prostate = tested on: PC-3 prostate
M14 melanoma = tested on: M14 melanoma
MCF7 breast = tested on: MCF7 breast
RPMI-8226 leukemia = tested on: RPMI-8226 leukemia
MOLT-4 leukemia = tested on: MOLT-4 leukemia
SR leukemia = tested on: SR leukemia
OVCAR-4 ovarian = tested on: OVCAR-4 ovarian
CCRF-CEM leukemia = tested on: CCRF-CEM leukemia
SK-OV-3 ovarian = tested on: SK-OV-3 ovarian
SK-MEL-2 melanoma = tested on: SK-MEL-2 melanoma
OVCAR-5 ovarian = tested on: OVCAR-5 ovarian
UO-31 renal = tested on: UO-31 renal
786-0 renal = tested on: 786-0 renal
NCI-H460 lung = tested on: NCI-H460 lung
U251 CNS = tested on: U251 CNS
SF-295 CNS = tested on: SF-295 CNS
UACC-257 melanoma = tested on: UACC-257 melanoma
MALME-3M melanoma = tested on: MALME-3M melanoma
T-47D breast = tested on: T-47D breast
SK-MEL-5 melanoma = tested on: SK-MEL-5 melanoma
BT-549 breast = tested on: BT-549 breast
MDA-MB-231 breast = tested on: MDA-MB-231 breast
SF-268 CNS = tested on: SF-268 CNS
KM12 colon = tested on: KM12 colon
RXF 393 renal = tested on: RXF 393 renal
HT29 colon = tested on: HT29 colon
SNB-75 CNS = tested on: SNB-75 CNS
COLO 205 colon = tested on: COLO 205 colon
EKVX NSCLC = tested on: EKVX NSCLC
HCT-116 colon = tested on: HCT-116 colon
A498 renal = tested on: A498 renal
LOX IMVI melanoma = tested on: LOX IMVI melanoma
SK-MEL-28 melanoma = tested on: SK-MEL-28 melanoma
MDA-MB-435 = tested on: MDA-MB-435
SNB-19 CNS = tested on: SNB-19 CNS
OVCAR-8 ovarian = tested on: OVCAR-8 ovarian
HOP-92 NSCLC = tested on: HOP-92 NSCLC
HCC-2998 colon = tested on: HCC-2998 colon
DU-145 prostate = tested on: DU-145 prostate
IGROV1 ovarian = tested on: IGROV1 ovarian
A549 NSCLC = tested on: A549 NSCLC
SW-620 colon = tested on: SW-620 colon
SF-539 CNS = tested on: SF-539 CNS
K-562 leukemia = tested on: K-562 leukemia
NCI-H522 lung = tested on: NCI-H522 lung
ACHN renal = tested on: ACHN renal

Structure (SMILES): COc1ccccc1NC(=O)c1ccc(/C=C/C(=O)c2nccn2C)cc1
- GI50 (HCT-15 colon): 363 nM
- TGI (HCT-15 colon): 843 nM
- GI50 (SN12C renal): 592 nM
- TGI (SN12C renal): 1560 nM
- GI50 (NCI/ADR-RES ovarian): 806 nM
- TGI (NCI/ADR-RES ovarian): 9770 nM
- GI50 (NCI-H23 lung): 561 nM
- TGI (NCI-H23 lung): 1500 nM
- GI50 (NCI-H226 lung): 588 nM
- TGI (NCI-H226 lung): 1690 nM
- GI50 (TK-10 renal): 811 nM
- TGI (TK-10 renal): 9530 nM
- GI50 (UACC-62 melanoma): 472 nM
- TGI (UACC-62 melanoma): 986 nM
- GI50 (HS 578T breast): 1100 nM
- TGI (HS 578T breast): 9800 nM
- GI50 (OVCAR-3 ovarian): 459 nM
- TGI (OVCAR-3 ovarian): 988 nM
- GI50 (HOP-62 NSCLC): 762 nM
- TGI (HOP-62 NSCLC): 2370 nM
- GI50 (CAKI-1 renal): 453 nM
- TGI (CAKI-1 renal): 1320 nM
- GI50 (HL-60(TB) leukemia): 547 nM
- TGI (HL-60(TB) leukemia): 1410 nM
- GI50 (PC-3 prostate): 628 nM
- TGI (PC-3 prostate): 1650 nM
- GI50 (M14 melanoma): 536 nM
- TGI (M14 melanoma): 1310 nM
- GI50 (MCF7 breast): 404 nM
- TGI (MCF7 breast): 977 nM
- GI50 (RPMI-8226 leukemia): 429 nM
- TGI (RPMI-8226 leukemia): 1460 nM
- GI50 (MOLT-4 leukemia): 711 nM
- TGI (MOLT-4 leukemia): 2220 nM
- GI50 (SR leukemia): 242 nM
- TGI (SR leukemia): 7000 nM
- GI50 (OVCAR-4 ovarian): 740 nM
- TGI (OVCAR-4 ovarian): 5670 nM
- GI50 (CCRF-CEM leukemia): 669 nM
- TGI (CCRF-CEM leukemia): 8010 nM
- GI50 (SK-OV-3 ovarian): 1060 nM
- TGI (SK-OV-3 ovarian): 10700 nM
- GI50 (SK-MEL-2 melanoma): 1900 nM
- TGI (SK-MEL-2 melanoma): 10800 nM
- GI50 (OVCAR-5 ovarian): 619 nM
- TGI (OVCAR-5 ovarian): 1730 nM
- GI50 (UO-31 renal): 357 nM
- TGI (UO-31 renal): 714 nM
- GI50 (786-0 renal): 542 nM
- TGI (786-0 renal): 1340 nM
- GI50 (NCI-H460 lung): 572 nM
- TGI (NCI-H460 lung): 1520 nM
- GI50 (U251 CNS): 434 nM
- TGI (U251 CNS): 1020 nM
- GI50 (SF-295 CNS): 658 nM
- TGI (SF-295 CNS): 1760 nM
- GI50 (UACC-257 melanoma): 972 nM
- TGI (UACC-257 melanoma): 10100 nM
- GI50 (MALME-3M melanoma): 616 nM
- TGI (MALME-3M melanoma): 1730 nM
- GI50 (T-47D breast): 711 nM
- TGI (T-47D breast): 2580 nM
- GI50 (SK-MEL-5 melanoma): 648 nM
- TGI (SK-MEL-5 melanoma): 1680 nM
- GI50 (BT-549 breast): 509 nM
- TGI (BT-549 breast): 1190 nM
- GI50 (MDA-MB-231 breast): 835 nM
- TGI (MDA-MB-231 breast): 9250 nM
- GI50 (SF-268 CNS): 631 nM
- TGI (SF-268 CNS): 1970 nM
- GI50 (KM12 colon): 440 nM
- TGI (KM12 colon): 872 nM
- GI50 (RXF 393 renal): 420 nM
- TGI (RXF 393 renal): 857 nM
- GI50 (HT29 colon): 644 nM
- TGI (HT29 colon): 1780 nM
- GI50 (SNB-75 CNS): 342 nM
- TGI (SNB-75 CNS): 1090 nM
- GI50 (COLO 205 colon): 552 nM
- TGI (COLO 205 colon): 1290 nM
- GI50 (EKVX NSCLC): 591 nM
- TGI (EKVX NSCLC): 1890 nM
- GI50 (HCT-116 colon): 408 nM
- TGI (HCT-116 colon): 890 nM
- GI50 (A498 renal): 555 nM
- TGI (A498 renal): 1490 nM
- GI50 (LOX IMVI melanoma): 278 nM
- TGI (LOX IMVI melanoma): 605 nM
- GI50 (SK-MEL-28 melanoma): 570 nM
- TGI (SK-MEL-28 melanoma): 1440 nM
- GI50 (MDA-MB-435): 548 nM
- TGI (MDA-MB-435): 1300 nM
- GI50 (SNB-19 CNS): 553 nM
- TGI (SNB-19 CNS): 1590 nM
- GI50 (OVCAR-8 ovarian): 916 nM
- TGI (OVCAR-8 ovarian): 10100 nM
- GI50 (HOP-92 NSCLC): 673 nM
- TGI (HOP-92 NSCLC): 5010 nM
- GI50 (HCC-2998 colon): 487 nM
- TGI (HCC-2998 colon): 912 nM
- GI50 (DU-145 prostate): 504 nM
- TGI (DU-145 prostate): 1090 nM
- GI50 (IGROV1 ovarian): 523 nM
- TGI (IGROV1 ovarian): 1340 nM
- GI50 (A549 NSCLC): 740 nM
- TGI (A549 NSCLC): 8750 nM
- GI50 (SW-620 colon): 473 nM
- TGI (SW-620 colon): 1220 nM
- GI50 (SF-539 CNS): 495 nM
- TGI (SF-539 CNS): 1070 nM
- GI50 (K-562 leukemia): 588 nM
- TGI (K-562 leukemia): 11600 nM
- GI50 (NCI-H522 lung): 584 nM
- TGI (NCI-H522 lung): 1520 nM
- GI50 (ACHN renal): 532 nM
- TGI (ACHN renal): 1090 nM
